The results in this text go back to patent US10556905B2, “Processes for preparing a diazabicyclooctane compound” (priority 2012, dated 2020).

As a reminder, the pIC50 is the IC50 on a negative log10 scale, so that one unit is a factor of ten.

Each structure is given as a SMILES string. pIC50: −log10 of the molar value. Read-outs that look alike come from different tables or passages of the source.

Test [1] has as its target T1, KPC-2 (Klebsiella pneumoniae, UniProt Q9F663).
T1 construct: AmpC, TEM-1, KPC-2 or OXA-2 domain excluding signal peptide was amplified with PCR; made in house; host or cells: Escherichia coli BL21 (DE3), pET-28b(+)
Kind of test: β-Lactamase inhibitory activity (nitrocefin hydrolysis), KPC-2. Type of test: biochemical. Particulars: KPC-2 0.5 nM, 100 μM nitrocefin, pre-incubation 30° C. 10 minutes.

In test [2] the target is T2, OXA-2 (Escherichia coli, UniProt P0A1V9).
T2 construct: AmpC, TEM-1, KPC-2 or OXA-2 domain excluding signal peptide was amplified with PCR; made in house; host or cells: Escherichia coli BL21 (DE3), pET-28b(+)
Kind of test: biochemical. Set-up: species or system P. aeruginosa.

The target of test [3] is T3, AmpC (Pseudomonas aeruginosa, UniProt P24735).
T3 construct: AmpC, TEM-1, KPC-2 or OXA-2 domain excluding signal peptide was amplified with PCR; made in house; host or cells: Escherichia coli BL21 (DE3), pET-28b(+)
Kind of test: biochemical.

The target in test [4] is T4, TEM-1 (Escherichia coli, UniProt P62593).
T4 construct: AmpC, TEM-1, KPC-2 or OXA-2 domain excluding signal peptide was amplified with PCR; made in house; host or cells: Escherichia coli BL21 (DE3), pET-28b(+)
Kind of test: β-Lactamase inhibitory activity (nitrocefin hydrolysis), TEM-1. Type of test: biochemical. As to conditions: TEM-1 0.1 nM, 100 μM nitrocefin, pre-incubation 30° C. 10 minutes. The method, then:
Using Pseudomonas aeruginosa ATCCBAA-47 genome, plasmid pBR322, Klebsiella pneumoniae ATCCBAA-1705, and P. aeruginosa MSC17696 as a template, each DNA for encoding β-lactamase, AmpC, TEM-1, KPC-2 or OXA-2 domain excluding signal peptide was amplified with PCR. Each of the PCR product was incorporated into pET-28b(+)vector (Merck), introduced into Escherichia coli BL21 (DE3) (Merck), and, under induction of 1 mM isopropyl-β-D-(−)-thiogalactopyranoside (Nacalai Tesque), cultured overnight at 20° C. to express AmpC, TEM-1, KPC-2, and OXA-2. After the bacterial cell was collected, AmpC was purified from the cell extract obtained by ultrasonic treatment, using CM Sepharose Fast Flow (GE Healthcare) and HiTrap Heparin HP (GE Healthcare) at 4° C. TEM-1 was purified with HiTrap SPHP (GE Healthcare), HiTrap Q (GE Healthcare) and Mono Q (GE Healthcare), and KPC-2 was purified with HiTrap SPHP. OXA-2 was purified with HiTrap SPHP and HiTrap Heparin HP.
For the measurement of β-lactamase inhibitory activity, 100 μM (final concentration) nitrocefin (Oxoid) was used as a substrate, and 2.5% DMSO, 10 μg/mL bovine serum derived albumin (Sigma-Aldrich) and 50 mM phosphate buffer at pH 7.0 were used as a reaction solution. […] Nitrocefin was added to each well to be mixed therein, followed by incubation at 30° C. for 20 minutes, and Multiscan Ascent (Thermo Fisher Scientific) was used to measure 492 nm wavelength, thereby measuring nitrocefin hydrolytic activity of β-Lactamase, to determine enzyme inhibitory activity. […] As the inhibitory activity strength, less than 0.1 μM, less than 1 μM, less than 3 μM, less than 10 μM, and 10 μM or more were shown with A, B, C, D, and E respectively.

[5] abbreviates: OXA-2 2 nM, 100 μM nitrocefin, pre-incubation 30° C. 10 minutes, read-out: β-Lactamase inhibitory activity OXA-2 (IC50).

T4 sequence (P62593 24-286 limits assumed): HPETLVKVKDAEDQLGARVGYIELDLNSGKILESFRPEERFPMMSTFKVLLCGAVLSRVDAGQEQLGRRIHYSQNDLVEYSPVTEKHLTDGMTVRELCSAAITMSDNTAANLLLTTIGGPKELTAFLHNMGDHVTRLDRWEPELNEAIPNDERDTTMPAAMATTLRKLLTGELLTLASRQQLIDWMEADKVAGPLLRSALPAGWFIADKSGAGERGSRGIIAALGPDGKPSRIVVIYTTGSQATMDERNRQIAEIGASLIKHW
T2 sequence (P0A1V9 22-275): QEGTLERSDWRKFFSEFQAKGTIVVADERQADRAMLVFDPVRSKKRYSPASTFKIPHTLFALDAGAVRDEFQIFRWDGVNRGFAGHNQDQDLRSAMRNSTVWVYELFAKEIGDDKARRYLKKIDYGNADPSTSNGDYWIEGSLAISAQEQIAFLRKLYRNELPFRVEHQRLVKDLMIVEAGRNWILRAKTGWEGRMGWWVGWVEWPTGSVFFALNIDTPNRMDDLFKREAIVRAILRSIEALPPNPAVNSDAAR
T3 sequence (P24735 27-397): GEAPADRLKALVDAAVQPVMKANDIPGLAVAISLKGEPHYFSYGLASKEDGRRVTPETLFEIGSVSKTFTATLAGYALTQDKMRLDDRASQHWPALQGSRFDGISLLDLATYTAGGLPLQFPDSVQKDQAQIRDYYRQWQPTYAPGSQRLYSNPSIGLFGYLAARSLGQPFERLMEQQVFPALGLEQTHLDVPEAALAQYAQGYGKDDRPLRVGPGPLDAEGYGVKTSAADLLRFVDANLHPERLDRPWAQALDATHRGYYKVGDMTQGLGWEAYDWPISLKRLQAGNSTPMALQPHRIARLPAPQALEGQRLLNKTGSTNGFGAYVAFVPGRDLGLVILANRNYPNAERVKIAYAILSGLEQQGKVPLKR
T1 sequence (Q9F663 25-293, looked up): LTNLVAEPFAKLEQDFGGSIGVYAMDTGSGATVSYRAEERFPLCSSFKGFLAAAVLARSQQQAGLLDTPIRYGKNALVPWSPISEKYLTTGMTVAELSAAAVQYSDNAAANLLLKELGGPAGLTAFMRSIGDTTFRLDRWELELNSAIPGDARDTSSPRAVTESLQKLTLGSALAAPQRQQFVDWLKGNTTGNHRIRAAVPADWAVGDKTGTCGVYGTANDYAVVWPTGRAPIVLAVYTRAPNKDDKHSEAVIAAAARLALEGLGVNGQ

As to `CN(NC(=O)[C@@H]1CC[C@@H]2CN1C(=O)N2OS(=O)(=O)O)C(=O)OC(C)(C)C` (racemic) [Example 18, Sodium tert-butyl 1-methyl-2-{[(2SR,5RS)-7-oxo-6-(sulfooxy)-1,6-diazabicyclo[3.2.1]oct-2-yl]carbonyl}hydrazinecarboxylate], the negative logarithm of the IC50 (pIC50) is 6.00 to 7.00 in test [1], 5.52 to 6.00 in test [2], 6.00 to 7.00 in test [3] and more than 7.00 in test [4].
Take `CNNC(=O)[C@@H]1CC[C@@H]2CN1C(=O)N2OS(=O)(=O)O` (racemic) [Example 19, (2SR,5RS)—N′-Methyl-7-oxo-6-(sulfooxy)-1,6-diazabicyclo[3.2.1]octane-2-carbohydrazide]: the negative-log IC50 (pIC50) in test [1] was 6.00 to 7.00; in test [3], 6.00 to 7.00; in test [4], more than 7.00.
Take `CN(C)NC(=O)[C@@H]1CC[C@@H]2CN1C(=O)N2OS(=O)(=O)O` (racemic) [Example 20, Sodium (2SR,5RS)—N′,N′-dimethyl-7-oxo-6-(sulfooxy)-1,6-diazabicyclo[3.2.1]octane-2-carbohydrazide]: the negative logarithm of the IC50 (pIC50) in test [1] is 5.52 to 6.00; in test [2], 5.00 to 5.52; in test [3], 6.00 to 7.00; in test [4], 6.00 to 7.00.
Consider `CC(=O)N(C)NC(=O)[C@@H]1CC[C@@H]2CN1C(=O)N2OS(=O)(=O)O` (racemic) [Example 25, Sodium (2SR,5RS)—N′-acetyl-N′-methyl-7-oxo-6-(sulfooxy)-1,6-diazabicyclo[3.2.1]octane-2-carbohydrazide], for which the negative logarithm of the IC50 (pIC50) in test [1] was more than 7.00; in test [2], less than 5.00; in test [3], 6.00 to 7.00; in test [4] it was more than 7.00.
`NCC(=O)NNC(=O)[C@@H]1CC[C@@H]2CN1C(=O)N2OS(=O)(=O)O` (racemic) [Example 26, (2SR,5RS)—N′-(Aminoacetyl)-7-oxo-6-(sulfooxy)-1,6-diazabicyclo[3.2.1]octane-2-carbohydrazide]: the pIC50 in test [1] was 5.52 to 6.00; in test [3], 5.52 to 6.00; in test [4] it was 6.00 to 7.00.
On to `O=C(NNC(=O)[C@@H]1CC[C@@H]2CN1C(=O)N2OS(=O)(=O)O)c1ccccc1` (racemic) [Example 30, Sodium (2SR,5RS)—N′-benzoyl-7-oxo-6-(sulfooxy)-1,6-diazabicyclo[3.2.1]octane-2-carbohydrazide], for which the results for the pIC50 in test [1], in test [3] and in test [4] were 6.00 to 7.00, 6.00 to 7.00 and more than 7.00, respectively.
With `NCc1ccc(C(=O)NNC(=O)[C@@H]2CC[C@@H]3CN2C(=O)N3OS(=O)(=O)O)cc1` (racemic) [Example 32, (2SR,5RS)—N′-(4-(Aminomethyl)benzoyl)-7-oxo-6-(sulfooxy)-1,6-diazabicyclo[3.2.1]octane-2-carbohydrazide], the negative logarithm of the IC50 (pIC50) is 6.00 to 7.00 in test [1], 5.00 to 5.52 in test [2] (setting [5]), more than 7.00 in test [3] and more than 7.00 in test [4].
As for `O=C(NN1CCCC1=O)[C@@H]1CC[C@@H]2CN1C(=O)N2OS(=O)(=O)O` (racemic) [Example 33, Sodium (2SR,5RS)-7-oxo-N-(2-oxopyrrolidin-1-yl)-6-(sulfooxy)-1,6-diazabicyclo[3.2.1]octane-2-carboxamide], the negative-log IC50 (pIC50) was 6.00 to 7.00 in test [1], 5.00 to 5.52 in test [2], 6.00 to 7.00 in test [3] and more than 7.00 in test [4].
For the compound `O=C(NNC(=O)[C@@H]1CC[C@@H]2CN1C(=O)N2OS(=O)(=O)O)Nc1ccccc1` (racemic) [Example 49, Sodium 2-{[(2SR,5RS)-7-oxo-6-(sulfooxy)-1,6-diazabicyclo[3.2.1]oct-2-yl]carbonyl}-N-phenylhydrazinecarboxamide], the pIC50 was 6.00 to 7.00 in test [1], 5.00 to 5.52 in test [2], 6.00 to 7.00 in test [3] and more than 7.00 in test [4].
Turning to `CC(C)(C)OC(=O)NNC(=O)[C@@H]1CC[C@@H]2CN1C(=O)N2OS(=O)(=O)O` (racemic) [Example 53, Sodium tert-butyl 2-{[(2SR,5RS)-7-oxo-6-(sulfooxy)-1,6-diazabicyclo[3.2.1]oct-2-yl]carbonyl}hydrazinecarboxylate], the negative logarithm of the IC50 (pIC50) is 6.00 to 7.00 in test [1], 6.00 to 7.00 in test [3] and more than 7.00 in test [4].
Turning to `O=C(NN1CCOCC1)[C@@H]1CC[C@@H]2CN1C(=O)N2OS(=O)(=O)O` (racemic) [Example 55, Sodium (2SR,5RS)—N-(morpholin-4-yl)-7-oxo-6-(sulfooxy)-1,6-diazabicyclo[3.2.1]octane-2-carboxamide], the negative-log IC50 (pIC50) in test [1] was 5.52 to 6.00; in test [2], 5.00 to 5.52; in test [3], 6.00 to 7.00; in test [4], 6.00 to 7.00.
On to `CCONC(=O)[C@@H]1CC[C@@H]2CN1C(=O)N2OS(=O)(=O)O` (racemic) [Example 57, Sodium (2SR,5RS)—N-ethoxy-7-oxo-6-(sulfooxy)-1,6-diazabicyclo[3.2.1]octane-2-carboxamide], for which the results for the negative logarithm of the IC50 (pIC50) in test [1], in test [3] and in test [4] were 5.52 to 6.00, 6.00 to 7.00 and more than 7.00, respectively.
With `NNC(=O)[C@@H]1CC[C@@H]2CN1C(=O)N2OS(=O)(=O)O` [Example 17, (2S,5R)-7-Oxo-6-(sulfooxy)-1,6-diazabicyclo[3.2.1]octane-2-carbohydrazide], the pIC50 in test [1] is 6.00 to 7.00; in test [2] (setting [5]), 5.00 to 5.52; in test [3], 6.00 to 7.00; in test [4], more than 7.00.
Turning to `CC(C)(C)C(=O)NNC(=O)[C@@H]1CC[C@@H]2CN1C(=O)N2OS(=O)(=O)O` [Example 24, Sodium (2S,5R)—N′-(2,2-dimethylpropanoyl)-7-oxo-6-(sulfooxy)-1,6-diazabicyclo[3.2.1]octane-2-carbohydrazide], the negative logarithm of the IC50 (pIC50) in test [1], in test [3] and in test [4] was 6.00 to 7.00 throughout.
Turning to `O=C([C@@H]1CC[C@@H]2CN1C(=O)N2OS(=O)(=O)O)N1CCCCO1` [Example 71, Sodium (2S,5R)-2-(1,2-oxazinan-2-ylcarbonyl)-6-(sulfooxy)-1,6-diazabicyclo[3.2.1]octane-7-one], the values for the negative logarithm of the IC50 (pIC50) in test [1], in test [3] and in test [4] were 6.00 to 7.00, 6.00 to 7.00 and more than 7.00, respectively.
Regarding `O=C(NOCCN1CCNCC1)[C@@H]1CC[C@@H]2CN1C(=O)N2OS(=O)(=O)O` [Example 73, (2S,5R)-7-Oxo-N-[2-(piperazin-1-yl)ethoxy]-6-(sulfooxy)-1,6-diazabicyclo[3.2.1]octane-2-carboxamide], the negative logarithm of the IC50 (pIC50) in test [1] is 6.00 to 7.00; in test [3] it was more than 7.00; in test [4] it was more than 7.00.
Regarding `O=C(NOCCn1ccnc1)[C@@H]1CC[C@@H]2CN1C(=O)N2OS(=O)(=O)O` [Example 86, Sodium (2S,5R)—N-[2-(1H-Imidazol-1-yl)ethoxy]-7-oxo-6-(sulfooxy)-1,6-diazabicyclo[3.2.1]octane-2-carboxamide], the pIC50 in test [1] was 6.00 to 7.00; in test [3], more than 7.00; in test [4] it was more than 7.00.
Take `O=C(NC1CCNCC1)[C@@H]1CC[C@@H]2CN1C(=O)N2OS(=O)(=O)O` [MK-7655, reference compound]: in test [2] (setting [5]), the negative logarithm of the IC50 (pIC50) was 6.00 to 7.00.
With `NC(=O)[C@@H]1CC[C@@H]2CN1C(=O)N2OS(=O)(=O)O` [NXL104, reference compound], the pIC50 in test [2] (setting [5]) is 6.00 to 7.00.
For `C[C@]1(Cn2ccnn2)[C@H](C(=O)O)N2C(=O)C[C@H]2S1(=O)=O` [TAZ, tazobactam, reference compound], the pIC50 is 6.00 to 7.00 in test [1] and more than 7.00 in test [2] (setting [5]).
